Reference: PubChem BioAssay (NCI)
Values joined by “and” are separate entries in the source; they are usually repeats but may differ in a detail not shown here. Equal values may be shown once.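 Briefly, cells in 96-well plates were exposed to five compound concentrations for 48 h, and endpoints were estimated by linear interpolation. GI50 = concentration required for 50% inhibition of growth. Definition used: TGI = concentration required for complete inhibition of growth.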

What was measured:
Assay in all cases: NCI tumour cell line growth inhibition, 48 h
SK-OV-3 ovarian = system: SK-OV-3 ovarian
MDA-MB-231 breast = system: MDA-MB-231 breast
HCT-15 colon = system: HCT-15 colon
CAKI-1 renal = system: CAKI-1 renal
NCI/ADR-RES ovarian = system: NCI/ADR-RES ovarian
MALME-3M melanoma = system: MALME-3M melanoma
M19-MEL melanoma = system: M19-MEL melanoma
MOLT-4 leukemia = system: MOLT-4 leukemia
HCC-2998 colon = system: HCC-2998 colon
T-47D breast = system: T-47D breast
HOP-62 NSCLC = system: HOP-62 NSCLC
HS 578T breast = system: HS 578T breast
HT29 colon = system: HT29 colon
A549 NSCLC = system: A549 NSCLC
LOX IMVI melanoma = system: LOX IMVI melanoma
HCT-116 colon = system: HCT-116 colon
OVCAR-8 ovarian = system: OVCAR-8 ovarian
U251 CNS = system: U251 CNS
HL-60(TB) leukemia = system: HL-60(TB) leukemia
SR leukemia = system: SR leukemia
M14 melanoma = system: M14 melanoma
RXF 393 renal = system: RXF 393 renal
SW-620 colon = system: SW-620 colon
UACC-62 melanoma = system: UACC-62 melanoma
SNB-78 CNS = system: SNB-78 CNS
IGROV1 ovarian = system: IGROV1 ovarian
SN12K1 renal = system: SN12K1 renal
KM12 colon = system: KM12 colon
MDA-N = system: MDA-N
COLO 205 colon = system: COLO 205 colon
UACC-257 melanoma = system: UACC-257 melanoma
K-562 leukemia = system: K-562 leukemia
NCI-H226 lung = system: NCI-H226 lung
CCRF-CEM leukemia = system: CCRF-CEM leukemia
SF-295 CNS = system: SF-295 CNS
RPMI-8226 leukemia = system: RPMI-8226 leukemia
MCF7 breast = system: MCF7 breast
SK-MEL-5 melanoma = system: SK-MEL-5 melanoma
DMS 114 small cell lung = system: DMS 114 small cell lung
ACHN renal = system: ACHN renal
SNB-19 CNS = system: SNB-19 CNS
DLD-1 colon = system: DLD-1 colon
UO-31 renal = system: UO-31 renal
BT-549 breast = system: BT-549 breast
OVCAR-4 ovarian = system: OVCAR-4 ovarian
P388 leukemia = system: P388 leukemia
DMS 273 small cell lung = system: DMS 273 small cell lung
KM20L2 colon = system: KM20L2 colon
MDA-MB-435 = system: MDA-MB-435
HOP-18 NSCLC = system: HOP-18 NSCLC
SK-MEL-2 melanoma = system: SK-MEL-2 melanoma
SF-268 CNS = system: SF-268 CNS
SK-MEL-28 melanoma = system: SK-MEL-28 melanoma
SNB-75 CNS = system: SNB-75 CNS
HOP-92 NSCLC = system: HOP-92 NSCLC

COc1ccc2c(c1)c1c(C)c3cnccc3c(C)c1n2CCCN
GI50 (SK-OV-3 ovarian): 202 nM | TGI (SK-OV-3 ovarian): 1140 nM and 713 nM | TGI (MDA-MB-231 breast): 381 nM | GI50 (HCT-15 colon): 62.4 nM | TGI (HCT-15 colon): 473 nM and 955 nM | GI50 (CAKI-1 renal): 130 nM and 164 nM | TGI (CAKI-1 renal): 491 nM and 806 nM | GI50 (NCI/ADR-RES ovarian): 217 nM | TGI (NCI/ADR-RES ovarian): 696 nM and 759 nM | GI50 (MALME-3M melanoma): 225 nM | TGI (MALME-3M melanoma): 1420 nM and 609 nM | TGI (M19-MEL melanoma): 633 nM | TGI (MOLT-4 leukemia): 578 nM and 139 nM | GI50 (HCC-2998 colon): 75.3 nM | TGI (HCC-2998 colon): 1200 nM and 225 nM | TGI (T-47D breast): 760 nM | GI50 (HOP-62 NSCLC): 18.7 nM | TGI (HOP-62 NSCLC): 984 nM and 279 nM | TGI (HS 578T breast): 953 nM | GI50 (HT29 colon): < 11.4 nM | TGI (HT29 colon): 734 nM and 182 nM | GI50 (A549 NSCLC): 18.6 nM | TGI (LOX IMVI melanoma): 241 nM | GI50 (HCT-116 colon): 65.9 nM | TGI (HCT-116 colon): 303 nM and 1060 nM | GI50 (OVCAR-8 ovarian): 105 nM | TGI (OVCAR-8 ovarian): 741 nM and 892 nM | GI50 (U251 CNS): 171 nM and 34 nM | TGI (U251 CNS): 721 nM and 383 nM | GI50 (HL-60(TB) leukemia): 450 nM and 238 nM | TGI (HL-60(TB) leukemia): 977 nM and 1020 nM | TGI (SR leukemia): 118 nM | TGI (M14 melanoma): 330 nM | GI50 (RXF 393 renal): 145 nM | TGI (RXF 393 renal): 168 nM and 307 nM | GI50 (SW-620 colon): < 10 nM | TGI (SW-620 colon): 584 nM and 602 nM | GI50 (UACC-62 melanoma): 263 nM | TGI (UACC-62 melanoma): 950 nM and 778 nM | TGI (SNB-78 CNS): 653 nM | GI50 (IGROV1 ovarian): 136 nM | TGI (IGROV1 ovarian): 1320 nM and 1180 nM | TGI (SN12K1 renal): 239 nM | GI50 (KM12 colon): 79.8 nM and 29.8 nM | TGI (KM12 colon): 483 nM and 213 nM | TGI (MDA-N): 306 nM | GI50 (COLO 205 colon): 82.2 nM | TGI (COLO 205 colon): 751 nM and 259 nM | TGI (UACC-257 melanoma): 1000 nM and 1690 nM | GI50 (K-562 leukemia): 71.2 nM and 13.9 nM | TGI (K-562 leukemia): 637 nM and 382 nM | GI50 (NCI-H226 lung): 558 nM and 416 nM | TGI (NCI-H226 lung): 1300 nM and 1600 nM | GI50 (CCRF-CEM leukemia): 47.2 nM and < 10 nM | GI50 (SF-295 CNS): 147 nM | TGI (SF-295 CNS): 621 nM and 1000 nM | GI50 (RPMI-8226 leukemia): 93.1 nM and 89.4 nM | TGI (RPMI-8226 leukemia): 443 nM and 555 nM | GI50 (MCF7 breast): 16.2 nM | TGI (MCF7 breast): 663 nM and 108 nM | GI50 (SK-MEL-5 melanoma): 282 nM | TGI (SK-MEL-5 melanoma): 746 nM and 1060 nM | TGI (DMS 114 small cell lung): 669 nM | TGI (ACHN renal): 695 nM | GI50 (SNB-19 CNS): 33.7 nM | TGI (SNB-19 CNS): 1440 nM and 512 nM | TGI (DLD-1 colon): 741 nM | GI50 (UO-31 renal): 12.5 nM | TGI (UO-31 renal): 1360 nM and 168 nM | TGI (BT-549 breast): 2600 nM | GI50 (OVCAR-4 ovarian): 16.1 nM | TGI (OVCAR-4 ovarian): 394 nM and 143 nM | TGI (P388 leukemia): 98.7 nM | TGI (DMS 273 small cell lung): 382 nM | TGI (KM20L2 colon): 685 nM | TGI (MDA-MB-435): 190 nM | TGI (HOP-18 NSCLC): 1550 nM | GI50 (SK-MEL-2 melanoma): 193 nM | TGI (SK-MEL-2 melanoma): 815 nM and 393 nM | GI50 (SF-268 CNS): 63.3 nM and 57.7 nM | TGI (SF-268 CNS): 204 nM and 425 nM | TGI (SK-MEL-28 melanoma): 892 nM and 1100 nM | GI50 (SNB-75 CNS): 64 nM | TGI (SNB-75 CNS): 791 nM and 206 nM | GI50 (HOP-92 NSCLC): 352 nM | TGI (HOP-92 NSCLC): 739 nM and 1130 nM
